# Results published in the supplement of paper PMC13380429.
# Key:
# Details in all cases: 72 h
# Calu-3 [1] = test: drug sensitivity score (DSS) for viability; higher = more toxic; extreme values may be limits of the assay
# Vero E6 [2] = test: as above
# U2OS [3] = test: as above
# Caco-2 [4] = test: as above
# HepG2 [5] = test: as above
# Calu-3 [6] = test: cell viability relative to DMSO; higher = less toxic
# Vero E6 [7] = test: as above
# U2OS [8] = test: as above
# Caco-2 [9] = test: as above
# HepG2 [10] = test: as above
# Calu-3 [11] = test: relative viability EC50 (midpoint between 100% and the lowest measured viability); higher = less toxic
# Vero E6 [12] = test: as above
# U2OS [13] = test: as above
# HepG2 [14] = test: as above
# Caco-2 [15] = test: as above
Structure (SMILES),drug sensitivity score (Calu-3 [1]),drug sensitivity score (Vero E6 [2]),drug sensitivity score (U2OS [3]),drug sensitivity score (Caco-2 [4]),drug sensitivity score (HepG2 [5]),cell viability (Calu-3 [6]; 1 nM),cell viability (Calu-3 [6]; 10 nM),cell viability (Calu-3 [6]; 100 nM),cell viability (Calu-3 [6]; 1000 nM),cell viability (Calu-3 [6]; 10000 nM),cell viability (Vero E6 [7]; 1 nM),cell viability (Vero E6 [7]; 10 nM),cell viability (Vero E6 [7]; 100 nM),cell viability (Vero E6 [7]; 1000 nM),cell viability (Vero E6 [7]; 10000 nM),cell viability (U2OS [8]; 1 nM),cell viability (U2OS [8]; 10 nM),cell viability (U2OS [8]; 100 nM),cell viability (U2OS [8]; 1000 nM),cell viability (U2OS [8]; 10000 nM),cell viability (Caco-2 [9]; 1 nM),cell viability (Caco-2 [9]; 10 nM),cell viability (Caco-2 [9]; 100 nM),cell viability (Caco-2 [9]; 1000 nM),cell viability (Caco-2 [9]; 10000 nM),cell viability (HepG2 [10]; 1 nM),cell viability (HepG2 [10]; 10 nM),cell viability (HepG2 [10]; 100 nM),cell viability (HepG2 [10]; 1000 nM),cell viability (HepG2 [10]; 10000 nM),relative viability EC50 (Calu-3 [11]),relative viability EC50 (Vero E6 [12]),relative viability EC50 (U2OS [13]),relative viability EC50 (HepG2 [14]),relative viability EC50 (Caco-2 [15])
O=c1cc(-c2cccc3c2Sc2ccccc2S3)oc(N2CCOCC2)c1,0,0.2,0,2.5,0.1,100%,98.9%,98.2%,104%,106%,97.5%,102%,101%,106%,83.3%,99.8%,99.6%,102%,100%,93.3%,103%,102%,98.2%,93.3%,67.8%,104%,102%,93.5%,108%,85.9%,> 10 µM,> 10 µM,> 10 µM,> 10 µM,–
Oc1ccc(-c2nc3cc(O)cc(Br)c3o2)cc1,0,0,0,0,0,110%,99.1%,93.8%,96.9%,89.1%,110%,95.6%,110%,101%,98.9%,99.1%,105%,96.9%,109%,100%,100%,112%,102%,98.3%,92.1%,107%,102%,104%,102%,95.3%,> 10 µM,> 10 µM,> 10 µM,> 10 µM,> 10 µM
O=C(O)CC/C=C\C[C@@H]1CO[C@H](c2ccccc2Cl)O[C@@H]1c1ccccc1O (racemic),0,0,0,0,0,93.8%,96.1%,102%,99%,98.9%,93.1%,96.3%,92.6%,102%,106%,96.6%,95%,97.4%,95.5%,99.2%,91.4%,90.3%,105%,96.9%,92.6%,88.5%,103%,106%,108%,110%,> 10 µM,> 10 µM,> 10 µM,> 10 µM,> 10 µM
CNCC(O)c1ccc(O)c(O)c1 (racemic) [DL-Adrenaline],0,0,0,0,0,99.8%,98.3%,92.4%,92.7%,105%,95.3%,93.2%,96.6%,93.8%,104%,98.7%,99.6%,89%,99.9%,103%,94.8%,97.8%,90.1%,93.7%,95.7%,105%,90.8%,110%,99.4%,113%,> 10 µM,> 10 µM,> 10 µM,> 10 µM,> 10 µM
N[C@H]1C[C@@H]1c1ccccc1 (racemic) [tranylcypromine],0,0,0,0,0,92.5%,97.7%,97.6%,100%,99.7%,100%,99.8%,93.3%,97.1%,108%,96.6%,102%,97.7%,103%,103%,90.7%,106%,93.7%,104%,104%,104%,103%,97%,98.5%,100%,> 10 µM,> 10 µM,> 10 µM,> 10 µM,> 10 µM
O=C(c1ccc(F)cc1)C1CCN(CCCCc2ccccc2)CC1 [4-(4-fluorobenzoyl)-1-(4-phenylbutyl)-piperidine],0.1,0,0,0,0.6,104%,106%,87.9%,106%,85.8%,103%,105%,102%,98.9%,95.7%,99.4%,96.8%,96.8%,95.9%,98.2%,98.9%,99.6%,106%,90.4%,94.9%,101%,96%,95.2%,101%,79.4%,> 10 µM,> 10 µM,> 10 µM,> 10 µM,> 10 µM
OCc1cncc(F)c1 [5-fluoro-3-pyridyl-methanol],0,0,0,0,0,101%,97.2%,95.1%,99.3%,99.9%,104%,104%,102%,98.8%,105%,98.4%,105%,98.4%,104%,97.8%,96%,106%,102%,107%,106%,106%,104%,109%,97.2%,102%,> 10 µM,> 10 µM,> 10 µM,> 10 µM,> 10 µM
N[C@@H](Cc1c[nH]c2ccc(O)cc12)C(=O)O [5-hydroxytryptophan],0,0,0,0,0,93.6%,94.7%,94.1%,94.4%,107%,98.4%,95.7%,100%,92.3%,95.5%,100%,97.3%,99.6%,94.2%,96.6%,93.3%,94.5%,92.5%,88.8%,103%,102%,97.4%,105%,106%,94.9%,> 10 µM,> 10 µM,> 10 µM,> 10 µM,> 10 µM
NC1(C(=O)O)CC1 [ACPC],0,0,0,0,0,98.6%,93.4%,93.1%,102%,96.8%,102%,96.9%,96.7%,94.5%,98.4%,93.8%,96%,95.9%,96.3%,98.1%,92.3%,98.6%,104%,87.7%,105%,103%,98.9%,90%,99.5%,93.4%,> 10 µM,> 10 µM,> 10 µM,> 10 µM,> 10 µM
NS(=O)(=O)c1nn2cc(-c3ccccc3)nc2s1 [AEG3482],0,0,0,0.4,0,98%,104%,95.8%,95.1%,109%,97.2%,97%,96.1%,94.8%,92.1%,101%,98.1%,97.8%,99.2%,100%,99.9%,99%,102%,88.4%,89.4%,87.5%,90.2%,93%,97%,94.6%,> 10 µM,> 10 µM,> 10 µM,> 10 µM,> 10 µM
O=C(Nc1cccc(C(F)(F)F)c1)Nc1cc(S(=O)(=O)NC2CC2)ccc1-c1ccsc1 [AGI-6780],0,0,0.4,0.4,0.1,96.9%,90.4%,99%,103%,110%,95.1%,97.4%,93.5%,97.2%,106%,97.6%,98.9%,101%,92.3%,87.5%,94.2%,93%,99.8%,97.4%,85.7%,93.3%,103%,94%,105%,86.5%,> 10 µM,> 10 µM,> 10 µM,> 10 µM,> 10 µM
CN[C@@H](C)C(=O)N[C@H](C(=O)N1CCC[C@H]1C(=O)N[C@H]1c2ccccc2C[C@H]1OCC#CC#CCO[C@@H]1Cc2ccccc2[C@@H]1NC(=O)[C@@H]1CCCN1C(=O)[C@@H](NC(=O)[C@H](C)NC)C1CCCCC1)C1CCCCC1 [AZD5582],6.8,0,0,1.1,0,102%,99.8%,85.8%,73.2%,37.7%,100%,106%,119%,95.2%,136%,98.3%,104%,98.4%,101%,91.1%,93.3%,103%,102%,93.4%,82.4%,107%,98.8%,94%,106%,87.8%,0.927 µM,> 10 µM,> 10 µM,> 10 µM,> 10 µM
CSc1ccc(C(=O)N[C@@H]2CCCC[C@@H]2NC(=O)CNC(=O)c2cc(C(F)(F)F)ccc2NC(=O)NC(C)C)cc1 [BMS-CCR2-22],0,0,0,0,0.1,112%,94%,98.1%,101%,101%,101%,102%,102%,101%,95.1%,102%,101%,96.5%,103%,94.5%,93.2%,87.7%,94.5%,100%,89.6%,108%,95.8%,101%,98%,88%,> 10 µM,> 10 µM,> 10 µM,> 10 µM,> 10 µM
COc1ccc(OC)c(CN(C(C)=O)c2cc(F)ccc2Oc2ccccc2)c1 [DAA-1106],0,0,0,0.9,0,103%,102%,93.7%,98.5%,98.1%,102%,99%,103%,107%,101%,102%,107%,100%,96.5%,93.6%,93.4%,112%,93.1%,108%,71.4%,102%,105%,99.2%,95.7%,96%,> 10 µM,> 10 µM,> 10 µM,> 10 µM,–
c1cc(-c2cnn3cc(-c4ccc(OCCN5CCCCC5)cc4)cnc23)ccn1 [dorsomorphin],2.9,5.5,6,3,6,102%,95.6%,99.4%,98.9%,47.4%,98.5%,94.5%,102%,96.8%,9.1%,102%,104%,95.9%,91.4%,16.7%,96.8%,96.6%,89.4%,95.1%,56.5%,103%,103%,90.5%,93.1%,11.6%,3.02 µM,2.9 µM,2.31 µM,2.52 µM,–
